Data on one molecule can be found in patent US9605317B2, “Biomarkers for assessing peripheral neuropathy response to cancer treatment” (Janssen Pharmaceutica NV, priority 2009, dated 2017).

SMILES strings stand for the structures. Where two headings read alike, the source gives them in different places.

The test system of data set [1] is subjects with previously untreated multiple myeloma. The data set can be described thus: Example 1 randomized open-label study, VMP vs MP: treatment-emergent peripheral neuropathy. As to conditions: human, in vivo, 54 weeks. Here is the method:
A randomized, open-label, multicenter study was conducted, consisting of 3 Phases: a Pre-randomization (Screening) Phase, an Open-label Treatment Phase, and a Post-treatment Phase. Approximately 680 subjects with previously untreated multiple myeloma were randomly assigned to one of two treatment groups and were stratified according to baseline β2-microglobulin, baseline albumin levels and region (North America, Europe, other). Subjects received either VELCADE™/Melphalan/Prednisone (VMP) (Treatment Group A) or Melphalan/Prednisone (MP) (Treatment Group B). Subjects in Treatment Group A received VELCADE™ 1.3 mg/m^2 (twice weekly [Weeks 1, 2, 4, and 5] for four 6-week cycles [8 doses per cycle] followed by once weekly [Weeks 1, 2, 4, and 5] for five 6-week cycles [4 doses per cycle]) in combination with melphalan 9 mg/m^2 and prednisone 60 mg/m^2 (once daily on Days 1 to 4 of each 6-week cycle). Subjects in Treatment Group B received 9 cycles of melphalan 9 mg/m^2 and prednisone 60 mg/m^2 once daily on Days 1 to 4 of each 6-week cycle. For both groups, treatment continued for a maximum of 9 cycles (54 weeks) and subjects were discontinued if disease progression or an unacceptable treatment-related toxicity occurred, or if a subject withdrew consent.
Included in the analysis are the 368 subjects who met all of the following criteria: consented to DNA analysis; had usable genotype data for SNPs listed in Appendix 1; had Adverse Event related clinical data before treatment and after at least one cycle of VELCADE™ treatment (including those having neurological events and those completing treatment with no neurological event). These 368 subjects included: Treatment Group A (154 Caucasian, 2 black, 10 Asian); Treatment Group B (168 Caucasian, 4 black, 12 Asian), and 18 were not treated.
The primary adverse event endpoints are the treatment-emergent peripheral neuropathies caused by VELCADE™, including peripheral neuropathy NEC, peripheral sensory neuropathy, and neuralgia. For each specific peripheral neuropathy endpoint, the null hypothesis was that none of the successfully genotyped SNPs is associated with this specific treatment-emergent peripheral neuropathy. Each successfully genotyped SNP is tested to see whether there is a difference in the distribution of the genotypes of this SNP between patients with and without this specific VELCADE™ treatment-emergent peripheral neuropathy. The test result is subsequently adjusted by total number of successfully genotyped SNPs to correct multiplicity. […]

The test system of data set [2] is patients with newly diagnosed multiple myeloma. As to conditions: human, in vivo, 4 cycles. Here is the method: A randomized, open-label, multicenter study was conducted that compared vincristine/adriamycin/dexamethasone (VAD) and VELCADE™/Dexamethasone as induction treatment prior to autologous hematopoietic stem cell transplantation (AHSCT) in patients up to (and including) the age of 65 with newly diagnosed multiple myeloma. Approximately 480 patients were included in this study. Subjects were randomized at diagnosis into one of 4 induction treatment arms: • A1 VAD (4 cycles) • A2 VAD (4 cycles) followed by Dexamethasone/cyclophosphomide/etoposide/cis-Platinum (DCEP) (2 cycles) • B1 VELCADE+dexamethasone (4 cycles) • B2 VELCADE+dexamethasone (4 cycles) followed by DCEP (2 cycles)
Randomization was stratified based on the initial β2 microglobulin level (> or ≦3 mg/l) and the presence of chromosome 13 abnormalities identified by fluorescence in situ hybridization (FISH) analysis. After induction treatment (Arms A1 and B1) or after consolidation treatment (Arms A2 and B2) all of the patients underwent AHSCT.
470 samples were sent to Illumina for genotyping on 2016 SNPs in 172 non-mitochondria genes. Out of the 470 samples, 29 samples are Hapmap control subjects, 3 samples are controls subjects from a Belgium family, and another 4 are samples from Example 1 for quality control. Therefore, there were totally 434 unique subjects from this study (103 in A1, 105 in A2, 111 in B1, 111 in B2 and 4 not treated).
After the quality control and filtering, 212 VELCADE treated subjects were included in the association analysis on non-mtSNPs.
Based on the raw p-values for the association tests, none of the significant associations identified in Example 1 were replicated in Example 2. […] Patients with homogenous genotype of the minor allele of rs4553808 (GG) tend to have earlier onset of peripheral neuropathy than those that contain only 1 or 0 copy of the minor allele (AA/AG): median time to onset was 68 days vs. 70 days.
The association with time and cumulative dosage of VELCADE™ to the onset of different levels of peripheral neuropathy in all 1908 SNPs in Example 2 was tested. No significant associations was identified after multiple testing correction using Bonfferoni (0.05/1908=2.62E-05).

The test system of data set [3] is patients. As to conditions: cited from earlier work.
Data set [4] concerns patients with multiple myeloma. As to conditions: cited from earlier work.

For the molecule `CC(C)C[C@H](NC(=O)[C@H](Cc1ccccc1)NC(=O)c1cnccn1)B(O)O` [VELCADE, bortezomib], in data set [1], the “onset of any peripheral neuropathy” value was determined as 72 events, the “onset of grade≧2 peripheral neuropathy” value was 50 events, the “onset of grade≧3 peripheral neuropathy” value is 21 events and the “onset rate of peripheral neuropathy event” value was found to be 51.8%. In data set [2], the Neuralgia was 9 cases, the “any one of the three adverse events (AE3)” value came to 51 cases, the “onset rate of peripheral neuropathy event” value came to 44.8% and the “peripheral neuropathy NEC” value is recorded as 44 cases. In data set [2], this molecule showed a peripheral sensory neuropathy of 8 cases. Further, the “treatment cycle at which peripheral neuropathy reaches a plateau” value in data set [3] (in vivo) is 5 cycle. In addition, the “mean rating of associated pain” value in data set [3] (scale of 0 for no pain and 10 for worst imaginable pain) is recorded as 7.8. Besides, in data set [4] (after dose discontinuation, patients discontinuing due to Grade 2 PN or who had >Grade 3 PN), the “patients with improvement or resolution of peripheral neuropathy” value was 73%. The “patients with improvement or resolution of peripheral neuropathy” value in data set [4] (after dose reduction, patients with >Grade 2 PN) is 51%.
